The values that follow come from ChEMBL document CHEMBL1149744, “Terpenoids and Alkaloids from Esenbeckia belizencis. Spontaneous Oxidation of Furoquinoline Alkaloids” (J Nat Prod, 1992).

Where only a bound is given, the exact number is not on record here.

The test system of this data set is Artemia salina. The data set is described as follows: Toxicity against Artemia salina. The settings on record: in vivo. It is filed as organism-based.

For orientation: LC50 means the concentration that kills 50% of the test population. Read a high LC50 as a less lethal substance. The compound `COc1c2ccoc2nc2c(OC)c3c(cc12)OCO3` [FLINDERSIAMINE] gave a median lethal concentration (LC50) greater than 1000 ppm. Compound `COc1cc2nc3occc3c(OC)c2cc1OC` [KOKUSAGININE] showed an LC50 of 367 ppm.
